From ChEMBL document CHEMBL2375263, “Identification and design of a novel series of MGAT2 inhibitors” (Bioorg Med Chem Lett, 2013) come the findings set out here.

Converted amounts (≈) assume the structure as drawn.

Data set [1] addresses T1, Acyl-CoA wax alcohol acyltransferase 2 (Homo sapiens, UniProt Q6E213).
T1 sequence (Q6E213 whole entry): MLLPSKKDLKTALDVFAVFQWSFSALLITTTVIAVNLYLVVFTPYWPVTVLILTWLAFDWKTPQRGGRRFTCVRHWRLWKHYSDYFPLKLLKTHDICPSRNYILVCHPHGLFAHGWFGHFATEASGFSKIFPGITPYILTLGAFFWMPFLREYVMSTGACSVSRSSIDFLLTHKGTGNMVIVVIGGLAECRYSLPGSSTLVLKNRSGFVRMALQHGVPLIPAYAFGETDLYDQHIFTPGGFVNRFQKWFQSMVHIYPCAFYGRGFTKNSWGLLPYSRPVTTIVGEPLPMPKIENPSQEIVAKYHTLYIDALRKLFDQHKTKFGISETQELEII
As to the kind of experiment: Inhibition of human recombinant AWAT2 expressed in insect cell membrane using cetyl alcohol and [14C]oleoyl coenzyme A as substrate after 10 to 15 mins by liquid scintillation counting.

Data set [2] concerns the target T2, Acyl-CoA wax alcohol acyltransferase 1 (Homo sapiens, UniProt Q58HT5).
T2 sequence (Q58HT5 whole entry): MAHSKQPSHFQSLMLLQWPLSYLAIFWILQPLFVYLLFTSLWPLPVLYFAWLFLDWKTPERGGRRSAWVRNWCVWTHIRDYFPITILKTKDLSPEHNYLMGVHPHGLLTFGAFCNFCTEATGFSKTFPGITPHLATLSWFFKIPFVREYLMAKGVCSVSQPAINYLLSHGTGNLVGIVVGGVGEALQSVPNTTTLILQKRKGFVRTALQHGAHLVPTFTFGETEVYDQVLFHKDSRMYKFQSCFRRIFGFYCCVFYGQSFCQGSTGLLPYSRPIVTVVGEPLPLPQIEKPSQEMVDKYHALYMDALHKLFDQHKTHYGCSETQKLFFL
As to the kind of experiment: Inhibition of human recombinant AWAT1 expressed in insect cell membrane using palmitoleyl alcohol and [14C]stearoyl coenzyme A as substrate after 10 to 15 mins by liquid scintillation counting.

For data set [3], the target named is T3, Diacylglycerol O-acyltransferase 2 (Homo sapiens, UniProt Q96PD7).
T3 sequence (Q96PD7 whole entry): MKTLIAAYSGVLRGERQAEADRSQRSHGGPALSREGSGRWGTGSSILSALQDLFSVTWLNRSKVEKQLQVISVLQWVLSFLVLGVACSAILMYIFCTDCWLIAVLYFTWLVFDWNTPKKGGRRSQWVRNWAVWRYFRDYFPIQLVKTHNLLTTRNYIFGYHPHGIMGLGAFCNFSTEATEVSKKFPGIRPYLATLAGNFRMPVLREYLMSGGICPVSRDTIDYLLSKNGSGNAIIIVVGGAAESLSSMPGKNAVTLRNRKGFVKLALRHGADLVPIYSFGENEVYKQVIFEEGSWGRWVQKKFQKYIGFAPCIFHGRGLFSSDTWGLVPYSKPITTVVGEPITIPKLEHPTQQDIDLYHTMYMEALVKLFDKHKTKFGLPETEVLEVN
As to the kind of experiment: Inhibition of human recombinant DGAT2 using dioleoyl-sn-glycerol and [14C]oleoyl coenzyme A as substrate after 30 mins by liquid scintillation counting.

For data set [4], the target named is T4, Diacylglycerol O-acyltransferase 1 (Homo sapiens, UniProt O75907).
T4 sequence (O75907 whole entry): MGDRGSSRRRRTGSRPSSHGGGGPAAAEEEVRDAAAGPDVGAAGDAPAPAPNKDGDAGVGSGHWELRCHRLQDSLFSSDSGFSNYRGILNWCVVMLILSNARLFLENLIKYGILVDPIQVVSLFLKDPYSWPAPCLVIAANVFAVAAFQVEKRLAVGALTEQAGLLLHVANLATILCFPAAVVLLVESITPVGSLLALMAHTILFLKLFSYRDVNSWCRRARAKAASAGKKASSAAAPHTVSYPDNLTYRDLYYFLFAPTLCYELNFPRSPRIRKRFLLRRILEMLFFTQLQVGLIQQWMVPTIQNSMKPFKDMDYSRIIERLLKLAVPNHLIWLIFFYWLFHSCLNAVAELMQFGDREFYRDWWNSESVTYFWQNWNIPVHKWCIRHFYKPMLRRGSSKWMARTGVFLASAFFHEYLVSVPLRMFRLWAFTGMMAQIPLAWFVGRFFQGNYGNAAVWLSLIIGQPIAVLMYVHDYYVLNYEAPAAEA
The experiment in a line: Inhibition of human recombinant DGAT1 expressed in Sf9 cells using dioleoyl-sn-glycerol and [14C]oleoyl coenzyme A as substrate after 30 mins by liquid scintillation counting.

Data set [5] is described as follows: Time dependent inhibition of CYP450 (unknown origin). The note with it: human. Type of data set: ADME.
Data set [6] is described as follows: Inhibition of CYP450 (unknown origin). In kind it is ADME. The note with it: human.
Data set [7] relates to Liver microsomes. As to the kind of experiment: Ratio of compound-glutathione adduct formation to clozapine-glutathione adduct formation in human liver microsomes at 10 umol/l after 30 mins by glutathione trapping method. Type of data set: ADME, Microsome. The note with it: 0.5 h, 10 µM. (In general: Liver microsomes are vesicles of endoplasmic reticulum, rich in cytochrome P450 enzymes.)

Data set [8] in a line: Solubility of the compound. In kind it is physicochemical.
A short description of data set [9]: Apparent permeability from apical side to basolateral side of human Caco2 cells at 10 umol/l measured up to 120 mins by LCMS analysis. In kind it is ADME, cell-based. The note with it: Caco-2. On the technique in general: Caco-2 cells form a polarised layer with tight junctions and transporters.
Data set [10] can be described thus: Dissociation constant, pKa of the compound. In kind it is physicochemical.
Data set [11] is described as follows: Intrinsic clearance in human liver microsomes as 1 umol/l measured up to 30 mins by LC-MS analysis. In kind it is ADME, Microsome. The note with it: read-out: CLH.
The nature of data set [12]: Lipophilicity, log D of the compound at pH 7.4. Type of data set: physicochemical. The note with it: buffer.

As for `CCC1(C)NC(=O)c2cc(S(=O)(=O)Nc3ccc(Cl)cc3)ccc2NC1=O` (racemic), the 50% inhibitory concentration (IC50) in data set [1] is > 100 µM; in data set [2], > 100 µM; in data set [3], > 10 µM; in data set [4], > 10 µM. The “inhibition (INH)” value in data set [5] and in data set [6] was “Not Active” each time. In addition, the Ratio in [7] amounted to 0.4. Further, in data set [8], the solubility was 2 µM (≈ 0.816 µg/mL). Further, in data set [9], the Papp A→B at 2 h, 10 µM was 5.5 ×10⁻⁶ cm/s. Moreover, in data set [10], the pKa turned out to be 8.1. The microsomal CLint at 1 µM in data set [11] was 3 µL/min/mg. This molecule also showed a logD in [12] of 2.9.

As a reminder, the IC50 is the concentration that gives 50% inhibition. As usually defined, the solubility is the concentration that dissolves in the medium under given conditions. Low readings indicate little dissolved substance, high ones much dissolved substance. A word on the Papp A→B: it is how fast a substance crosses the layer from the apical side. A word on the pKa: it is the pH at which an ionisable group is half protonated. By logD is commonly meant lipophilicity at a set pH, counting ionised and neutral species. A low value points to lower lipophilicity.
